In general, IC50 refers to the concentration that gives 50% inhibition. A higher IC50 goes with weaker potency in that assay.

This assay concerns P. falciparum 3D7 growth, pLDH absorbance. The assay can be described thus: blood-stage malaria parasite growth potency – strain 3D7, dose response (AID 2305).
Compound `CC(C)CCn1c(Sc2ccc(C#N)c([N+](=O)[O-])c2)nnc1-c1ccccc1Cl` showed an IC50 of 1030 nM.

With `CCOc1ccc(NC(C)=O)c(O)c1`, the IC50 worked out at 840 nM.

For the compound `N#Cc1cccc(NC(=O)Nc2cccc(-c3cccc(-c4nc5ccc(C(F)(F)F)cc5[nH]4)c3)c2)c1`, the IC50 was 220 nM.

Regarding `O=C(NCc1ccccc1)c1nn(CCCN2CCC(N3CCCC3)CC2)cc1-c1ccc(Cl)c(Cl)c1`, the IC50 worked out at 670 nM.

For `Cc1cc(O)c(CN(C)Cc2ccc(N(C)C)cc2)cc1C(C)C`, the IC50 stood at 550 nM.

For `CCN(CCCN1CCCCC1)c1cc(C)nc(Nc2cc(C(F)(F)F)ccc2C)n1`, the IC50 is 860 nM.

For the compound `CNCCNc1nccc(N2CCc3ncnc(Nc4ccc(OCc5cccc(F)c5)c(Cl)c4)c3C2)n1`, the 50% inhibitory concentration (IC50) is 200 nM. Compared with the last compound, the IC50 is about 4.3-fold lower.

Take `COc1ccc(CNC2CCN(C)CC2)cc1-c1ccc(S(=O)(=O)NCCc2ccccn2)c(C)c1`: the IC50 was determined as 1150 nM.

With `COCCOc1ccc(Nc2nccc(-c3c(-c4cccc(NC(=O)c5c(F)cccc5F)c4)nn4ccccc34)n2)cc1Cl`, the IC50 stood at 360 nM. Compared with the last compound, the IC50 is about 3.2-fold lower.

In turn, `N=C(N)c1ccc(NC(=O)Cc2nc3ccc(C(=N)N)cc3[nH]2)cc1` had an IC50 of 1370 nM.

In turn, `c1ccc(CCNCc2ccc(-c3ccc(CNc4ccc5ncccc5c4)cc3)cc2)cc1` had an IC50 of 920 nM.

`Fc1cc(Cl)ccc1Nc1ccnc2cc(-c3ccc(CN4CCSCC4)o3)ccc12` displayed an IC50 of 780 nM.

The compound `O=C(NCCCCCN1CCC(c2c[nH]c3ccccc23)CC1)Nc1cccc(I)c1` had an IC50 of 990 nM. The IC50 values of the last two compounds are within 1.5-fold of each other.

On to `O=C(Cn1c(=O)oc2ccccc21)N1CCC(n2c(=O)n(CCCN3CCOCC3)c3ccccc32)CC1`, for which the IC50 was 770 nM.

Take `COc1cccc([C@@H](CC(=O)Nc2cc(C(F)(F)F)ccc2OC)Nc2ccc(C#N)c3ccccc23)c1`: the IC50 amounted to 990 nM. The IC50 values of the last two compounds are within 1.5-fold of each other.

`COc1ccc2nccc([C@@H](O)CN3CCC(NC(=O)c4cc5c(F)cc(F)cc5[nH]4)CC3)c2n1` registered an IC50 of 1390 nM. This IC50 and that of the compound before are within 1.5-fold of each other.

Compound `CC(C)n1c(C2CCN(CC3CCN(C(=O)/C=C/c4ccc(Cl)c(Cl)c4)CC3)CC2)nc2ccccc21` gave an IC50 of 1030 nM.

`Nc1cc(-c2cc3c(OCc4ccccc4)cccc3[nH]2)ccn1`: the IC50 was 1190 nM.

Compound `CCNc1cc(C(=O)N[C@@H](Cc2ccccc2Cl)[C@H](O)CNC2CCCCC2)cc(N2CCCCS2(=O)=O)c1` showed an IC50 of 800 nM.

In turn, `CCc1ccc(-n2c(NC(=O)c3ccccc3)nc3ccc(S(=O)(=O)NC(C)C(C)C)cc32)cc1` (stereo not drawn) displayed an IC50 of 930 nM.

With `CCCOc1ccccc1-c1nc2[nH]c3c(c2c(=O)[nH]1)CCN(C)C3`, the IC50 turned out to be 370 nM.

With `CCN1CC[C@]2(c3cccc(OC)c3)Cc3nc4ccccc4c(-c4ccccc4)c3C[C@H]2C1`, the IC50 is 350 nM.

For `O=[N+]([O-])c1cccc(CNCC2CCN(CC3CCCCC3)CC2)c1`, the IC50 was determined as 1290 nM.

Compound `COc1ccc(NC(=O)c2ccc(Br)c(C)c2)cc1N1CCN(CCCCc2ccccc2)CC1` had an IC50 of 820 nM. This IC50 lies about 1.6-fold lower than the previous one.

Take `COc1ccc(-c2cccc(NC(=O)c3ccc(Cl)cc3)c2)cc1CN1CCCN(C)CC1`: the IC50 turned out to be 390 nM.

Consider `O=[N+]([O-])c1cccc(NC(=S)N2CCCN(Cc3ccc(C(F)(F)F)cc3)CC2)c1`, for which the IC50 worked out at 1200 nM.

`CC(C)c1ccc(CN2CCC(NC(=O)c3ccc(-c4cccc(Cl)c4)s3)CC2)cc1` came in with an IC50 of 1430 nM. This IC50 and that of the compound before are within 1.5-fold of each other.

For the compound `O=C(NC1CCN(Cc2ccccc2)CC1)c1ccc(CNC2CCN(Cc3ccccc3)CC2)cc1`, the IC50 was determined as 870 nM. Against the preceding compound, the IC50 is about 1.6-fold lower.

`Cc1cc(N[C@@H](Cc2ccccc2)C(=O)NCCc2ccccc2)nc(NCc2ccccc2C)n1` displayed an IC50 of 880 nM. The IC50 values of the last two compounds are within 1.5-fold of each other.

`O=C(Nc1ccc(-c2ccccc2)cc1)Nc1cccc(Cn2ncc(N3CCNCC3)c(Cl)c2=O)c1` yielded an IC50 of 460 nM.

For `Cc1cccc2[nH]c(-c3cccc(-c4cccc(NC(=O)c5csnn5)c4)c3)nc12`, the half-maximal inhibitory concentration (IC50) was determined as 300 nM.

`Cc1cc(Nc2ccncc2)n2nc(C)c(-c3ccccc3Cl)c2n1`: the IC50 amounted to 650 nM.

Compound `CN(c1cc(NC(=O)c2ccccc2)ccn1)C1CCN(Cc2cccc(F)c2)CC1` showed an IC50 of 740 nM. The IC50 values of the last two compounds are within 1.5-fold of each other.

Consider `Cc1cc(O)cc2c(C3CCN(CC4CCN(C(=O)/C=C/c5ccc(Cl)c(Cl)c5)CC4)CC3)c[nH]c12`, for which the IC50 was found to be 1090 nM.

As to `CCCOc1ccc(C(=O)Nc2nonc2-c2ccc(OC)c(OC)c2)cc1`, the IC50 amounted to 990 nM.

In the case of `COCCNCc1cccc(-c2ccc(CN(C(=O)NC3CCCCC3)C3CCN(Cc4ccccc4)CC3)cc2)c1`, the IC50 stood at 760 nM.

`Cc1cc(=O)c(-c2ccc(Oc3cccc(OC(F)(F)F)c3)cc2)c(C)[nH]1` showed a half-maximal inhibitory concentration (IC50) of 200 nM. Compared with the last compound, the IC50 is about 3.8-fold lower.

Compound `NC(N)=Nc1nc(-c2cccc(NC(=O)NCc3cccc4ccccc34)c2)cs1` registered an IC50 of 840 nM. Against the preceding compound, the IC50 is about 4.2-fold higher.

Turning to `Cc1cc(Nc2ncc3c(n2)N(C2CCC2)CC3)ccc1N1CCN(C)CC1`, the half-maximal inhibitory concentration (IC50) is 1190 nM.

On to `CN(C)CCN(C)C(=O)c1cc(-c2ccncc2)c(-c2ccc(Cl)c(O)c2)o1`, for which the IC50 was found to be 1050 nM.

`CCN1CCN(c2ccc(Nc3c4ccccc4nc4ccccc34)cc2)CC1` gave an IC50 of 720 nM.

Regarding `O=C(N[C@H]1CCN(CCc2ccc(O[C@H]3CCNC3)c(F)c2)C1)c1ccc(Cl)c(Cl)c1`, the IC50 stood at 1190 nM.

`c1ccc2c(c1)CN(Cc1ccsc1)CC1(CCN(Cc3c[nH]c4cnccc34)CC1)O2` showed an IC50 of 1150 nM.

In turn, `CNC(=O)c1cnc(Nc2ccc(N3CCN(C)CC3)c(C)c2)nc1NC` yielded an IC50 of 870 nM.

Regarding `Cc1cccn2c(=O)c3cc(C(=O)NC4CCCCC4)c(=N)n(CCCn4ccnc4)c3nc12`, the IC50 was found to be 750 nM.

Consider `CN(C)CCNCc1nc(-c2ccc3c(Nc4ccc(Oc5ccccc5)cc4)ccnc3c2)cs1`, for which the IC50 worked out at 740 nM.

For `COCc1nc(-c2ccccc2)nc(N2CCN(C(=O)NC(C)C)CC2)c1Cc1ccccc1F`, the IC50 stood at 1000 nM. The IC50 values of the last two compounds are within 1.5-fold of each other.

`COc1ccc(CCc2ccc(-c3c(C)[nH]c(C)c(Cl)c3=O)cc2)cc1` gave an IC50 of 20 nM.

`c1ccc(CN2CCN(CCNc3c4ccccc4nc4ccccc34)CC2)cc1` displayed an IC50 of 880 nM.

`Nc1nc(N)c2c(ccc3ccccc32)n1` showed an IC50 of 750 nM.

As for `COc1ccc(Nc2nc(C)cc(NC3CCCC3)n2)cc1`, the IC50 turned out to be 870 nM.

For the compound `CCOc1c(CNCCCNc2cc(=O)c3ccccc3[nH]2)cc(I)cc1C(C)(C)C`, the IC50 turned out to be 700 nM.

Regarding `Cc1cccc(C(=O)Nc2ccc(N3CCCN(Cc4cccc(O)c4)CC3)cc2)c1`, the IC50 came to 1420 nM.

Consider `CCCN(CC1CC1)c1ncc(-c2cccc(CNCCC3CCCN3C)c2)cn1` (stereo not drawn), for which the IC50 worked out at 750 nM. Against the preceding compound, the IC50 is about 1.9-fold lower.

In the case of `COc1cc2c(cc1NS(=O)(=O)c1ccc(OCc3ccc(Br)cc3)cc1)CCN(C1CCC1)CC2`, the IC50 was 840 nM.

As to `CCCCCCCc1cc(O)c2c3c(c(=O)oc2c1)CN(C)CC3`, the IC50 came out at 140 nM.

Take `CC(C)c1ccc(NC(=O)N2CCc3ccc(OCCN(C(C)C)C(C)C)cc32)c(Br)c1`: the IC50 was 1090 nM.

As for `N#Cc1ccc2c(c1)CCN(CCC1CCC(NC(=O)c3cc4ccc(Br)cc4[nH]3)CC1)C2` (stereo not drawn), the IC50 was determined as 760 nM.

In the case of `Clc1ccc2nnc(-c3c(Cl)cccc3Cl)n2n1`, the IC50 is 910 nM. This IC50 and that of the compound before are within 1.5-fold of each other.

The compound `O=C(C=Cc1ccc(Cl)c(Cl)c1)NCCCCCN1CCC(CCNS(=O)(=O)c2ccc(Br)cc2)CC1` yielded an IC50 of 1120 nM.

Take `COc1ccc(CNCc2cccc(-c3ccc(-c4nc5c(C)cccc5[nH]4)cc3)c2)cc1`: the half-inhibitory concentration (IC50) stood at 240 nM. This IC50 is about 4.7-fold lower than that of the compound before.

The compound `Cc1cc(C)c2oc(-c3cccc(NC(=O)c4ccc([N+](=O)[O-])o4)c3C)nc2c1` displayed an IC50 of 1150 nM.

`O=C(Nc1ccc2c(c1)OCO2)c1cc(-c2cccnc2)nc2ccc(Cl)cc12` showed a 50% inhibitory concentration (IC50) of 520 nM. This IC50 is about 2.2-fold lower than that of the compound before.

Source of the values: PubChem BioAssay AID2305 (GlaxoSmithKline (GSK), 2010).
